# In patent US7811760B2, “Vector and method for detecting the change in transcription amount” (priority 2006, dated 2010):
# Target: T1, C57/BL6-line mouse AhR (Mus musculus, UniProt P30561)
# T1 construct: The AhR gene-coding region of the C57/BL6-line mouse was amplified from the reverse-transcribed sample by means of PCR; expressed in transfected cells; host or cells: mouse neuroblastoma Neuro2a, transient transfection with LIPOFECTAMINE 2000
# T1 sequence (P30561 10-805 M324I/F348L/P471L/N533S/M589L/T758A limits assumed): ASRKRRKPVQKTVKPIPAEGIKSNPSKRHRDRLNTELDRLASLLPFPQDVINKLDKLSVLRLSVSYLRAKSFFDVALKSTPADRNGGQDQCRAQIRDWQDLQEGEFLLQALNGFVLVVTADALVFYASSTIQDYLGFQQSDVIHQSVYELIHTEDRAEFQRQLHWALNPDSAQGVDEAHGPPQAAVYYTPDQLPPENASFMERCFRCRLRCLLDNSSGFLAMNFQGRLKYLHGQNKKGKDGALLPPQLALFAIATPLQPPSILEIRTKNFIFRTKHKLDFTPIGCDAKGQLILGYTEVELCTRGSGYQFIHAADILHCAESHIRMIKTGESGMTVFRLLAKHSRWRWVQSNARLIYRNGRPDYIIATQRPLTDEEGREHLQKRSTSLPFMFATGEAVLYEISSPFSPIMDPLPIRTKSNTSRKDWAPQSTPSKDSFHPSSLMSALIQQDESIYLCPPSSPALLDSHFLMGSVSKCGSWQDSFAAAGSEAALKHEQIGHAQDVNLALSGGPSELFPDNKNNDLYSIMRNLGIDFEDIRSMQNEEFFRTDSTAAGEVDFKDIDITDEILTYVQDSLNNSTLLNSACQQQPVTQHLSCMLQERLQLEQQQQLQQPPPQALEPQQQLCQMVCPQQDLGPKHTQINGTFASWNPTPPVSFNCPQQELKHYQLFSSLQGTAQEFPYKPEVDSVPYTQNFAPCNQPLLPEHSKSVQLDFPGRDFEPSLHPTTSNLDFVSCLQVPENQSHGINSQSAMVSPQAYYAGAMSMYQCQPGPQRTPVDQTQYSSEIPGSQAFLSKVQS
# Experiment: Reporter gene assay in Neuro2a with pTHE100×3/Luc and PGV-mAhR
# Format: cell-based
# Conditions: 1 to 10,000 pM TCDD
# Source text: In Example 8, the vector pTHE100×3/Luc (Example 7, FIG. 7A) was used as the vector containing a reporter gene, and Neuro2a was used as the cell.
# In this Example, a combination of pcDNA4-rAhR (Example 1) containing the SD-line rat AhR gene and pcDNA4/V5-His/lacZ (Invitrogen), as well as a combination of PGV-mAhR (Example 1) containing the C57/BL6-line mouse AhR gene and pcDNA4/V5-His/lacZ were used as the vectors for introducing into the cell together with pTHE100×3/Luc. pcDNA4-rAhR was introduced into the cell for constitutive expression of the SD-line rat AhR (SEQ ID No: 10); PGV-mAhR was introduced into the cell for constitutive expression of C57/BL6-line mouse AhR (SEQ ID No: 11); and pcDNA4/V5-His/lacZ was introduced into the cell for normalization of the transfection efficiency of the vector.
# The vectors were introduced into the cell by using LIPOFECTAMINE 2000, similarly to the method described in Example 3. After the above vectors were introduced into the cell, the obtained cell was exposed to 1 to 10,000 pM of TCDD to examine the increase in expression amount of the reporter gene in response to TCDD.
compound,measurement,value
"Clc1cc2c(cc1Cl)Oc1cc(Cl)c(Cl)cc1O2 [TCDD, 2,3,7,8-tetrachlorodibenzo-p-dioxine]",induction of transcription of the reporter gene in response to TCDD,effective in inducing transcription of the reporter gene
